According to US20080200454A1, “CARBON-LINKED TETRAHYDRO-PYRAZOLO-PYRIDINE MODULATORS OF CATHEPSIN S” (priority 2007, published 2008):

Target: Recombinant human cathepsin S (CatS) (Homo sapiens, UniProt P25774)
Assay: Recombinant human cathepsin S (CatS) inhibition assay, fluorogenic substrate Z-Valine-Valine-Arginine-AMC;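 further: Baculovirus-expressed CatS in pH 5.0 sodium acetate buffer with DTT and NaCl, fluorescence read each minute over 20 min, inhibition derived from rate slope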
Settings: not given

Recombinant human cathepsin S (CatS), sequence (P25774 115-331): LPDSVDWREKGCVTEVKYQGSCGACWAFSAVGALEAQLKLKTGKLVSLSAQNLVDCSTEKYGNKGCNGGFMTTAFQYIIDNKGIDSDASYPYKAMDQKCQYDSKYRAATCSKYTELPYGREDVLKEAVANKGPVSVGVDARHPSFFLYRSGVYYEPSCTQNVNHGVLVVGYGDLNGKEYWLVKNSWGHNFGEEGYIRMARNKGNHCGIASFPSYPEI

Compared with `CS(=O)(=O)N1CCc2c(c(-c3ccc(Cl)c(C#Cc4ccc(CNCc5ccc(Cl)cc5)cc4)c3)nn2C[C@H](O)CN2CCOCC2)C1` [Example 264, (R)-1-[3-(4-Chloro-3-{4-[(4-chloro-benzylamino)-methyl]-phenylethynyl}-phenyl)-5-methanesulfonyl-4,5,6,7-tetrahydro-pyrazolo[4,3-c]pyridin-1-yl]-3-morpholin-4-yl-propan-2-ol], `CNC(=O)N1CCc2c(c(-c3ccc(Cl)c(C#Cc4ccc(CNCc5ccc(Cl)cc5)cc4)c3)nn2CCCN2CCOCC2)C1` [Example 155, 3-(4-Chloro-3-{[4-({[(4-chlorophenyl)methyl]amino}methyl)phenyl]ethynyl}phenyl)-N-methyl-1-(3-morpholin-4-ylpropyl)-1,4,6,7-tetrahydro-5H-pyrazolo[4,3-c]pyridine-5-carboxamide] is 2.1-fold higher in IC50: 370 nM for the first, 790 nM for the second.

First: CS(=O)(=O)N1CCc2c(c(-c3ccc(Cl)c(C#CCN)c3)nn2CCCN2CCC(N3CCCC3=O)CC2)C1 [Example 307, 1-[1-(3-{3-[3-(3-Aminoprop-1-yn-1-yl)-4-chlorophenyl]-5-(methylsulfonyl)-4,5,6,7-tetrahydro-1H-pyrazolo[4,3-c]pyridin-1-yl}propyl)piperidin-4-yl]pyrrolidin-2-one]
Second: CS(=O)(=O)N1CCc2c(c(-c3ccc(Cl)c(CCCN4CCCCC4)c3)nn2CCCN2CCC(N3CCCC3=O)CC2)C1 [Example 102, 1-[1-(3-{3-[4-Chloro-3-(3-piperidin-1-yl-propyl)-phenyl]-5-methanesulfonyl-4,5,6,7-tetrahydro-pyrazolo[4,3-c]pyridin-1-yl}-propyl)-piperidin-4-yl]-pyrrolidin-2-one]
The IC50 of the first is 5.5-fold higher: 4650 nM for the first, 840 nM for the second.

First: COC(=O)CNCc1cc(C#Cc2cc(-c3nn(CCCN4CCOCC4C)c4c3CN(C(N)=O)CC4)ccc2Cl)ccc1Cl (stereo in doubt) [Example 220, Methyl N-{[5-({5-[5-(aminocarbonyl)-1-{3-[(3S)-3-methylmorpholin-4-yl]propyl}-4,5,6,7-tetrahydro-1H-pyrazolo[4,3-c]pyridin-3-yl]-2-chlorophenyl}ethynyl)-2-chlorophenyl]methyl}glycinate]
Second: CS(=O)(=O)N1CCc2c(c(-c3ccc(Cl)c(C#Cc4ccc(Oc5ccc(I)cc5)cc4)c3)nn2CCCN2CCOCC2)C1 [Example 14, 3-{4-Chloro-3-[4-(4-iodo-phenoxy)-phenylethynyl]-phenyl}-5-methanesulfonyl-1-(3-morpholin-4-yl-propyl)-4,5,6,7-tetrahydro-1H-pyrazolo[4,3-c]pyridine]
The IC50 of the first is 670-fold lower: 30 nM for the first, 20000 nM for the second. The first is the more potent here.

First: CS(=O)(=O)N1CCc2c(c(-c3ccc(Cl)c(CCCNS(=O)(=O)c4cccc(C#N)c4)c3)nn2CCCN2CCC(N3CCCC3=O)CC2)C1 [Example 98, N-{3-[2-Chloro-5-(5-methanesulfonyl-1-{3-[4-(2-oxo-pyrrolidin-1-yl)-piperidin-1-yl]-propyl}-4,5,6,7-tetrahydro-1H-pyrazolo[4,3-c]pyridin-3-yl)-phenyl]-propyl}-3-cyano-benzenesulfonamide]
Second: CS(=O)(=O)N1CCc2c(c(-c3ccc(Cl)c(C#CCCCc4ccccc4)c3)nn2CCCN2CCOCC2)C1 [Example 43, 3-[4-Chloro-3-(5-phenyl-pent-1-ynyl)-phenyl]-5-methanesulfonyl-1-(3-morpholin-4-yl-propyl)-4,5,6,7-tetrahydro-1H-pyrazolo[4,3-c]pyridine]
The IC50 of the first is 3.9-fold lower: 1410 nM for the first, 5450 nM for the second. The first is the more potent here.

`CS(=O)(=O)N1CCc2c(c(-c3ccc(Cl)c(C#CCN4CCS(=O)(=O)CC4)c3)nn2CCCN2CCOCC2)C1` [Example 50, 3-{4-Chloro-3-[3-(1,1-dioxo-1 A^6-thiomorpholin-4-yl)-prop-1-ynyl]-phenyl}-5-methanesulfonyl-1-(3-morpholin-4-yl-propyl)-4,5,6,7-tetrahydro-1H-pyrazolo[4,3-c]pyridine] was tested, and the IC50 was 6800 nM.

Same assay, conditions: CatS IC50

Going from `CS(=O)(=O)N1CCc2c(c(-c3ccc(Cl)c(C#Cc4cccc(CNCCCO)c4)c3)nn2CCCN2CCOCC2)C1` [Example 509, 3-({[3-({2-Chloro-5-[5-(methylsulfonyl)-1-(3-morpholin-4-ylpropyl)-4,5,6,7-tetrahydro-1H-pyrazolo[4,3-c]pyridin-3-yl]phenyl}ethynyl)phenyl]methyl}amino)propan-1-ol] to `CS(=O)(=O)N1CCc2c(c(-c3ccc(Cl)c(C#Cc4ccc(CNCc5nccs5)cc4)c3)nn2CCCN2CCOCC2)C1` [Example 456, 1-[4-({2-Chloro-5-[5-(methylsulfonyl)-1-(3-morpholin-4-ylpropyl)-4,5,6,7-tetrahydro-1H-pyrazolo[4,3-c]pyridin-3-yl]phenyl}ethynyl)phenyl]-N-(1,3-thiazol-2-ylmethyl)methanamine], the IC50 falls from 500 nM to 120 nM (4.2-fold). The second is the more potent here.

Going from `CS(=O)(=O)N1CCc2c(c(-c3ccc(Cl)c(CCc4cccc(CNCc5ccccc5)c4)c3)nn2CCCN2CCOCC2)C1` [Example 535, 1-[3-(2-{2-Chloro-5-[5-(methylsulfonyl)-1-(3-morpholin-4-ylpropyl)-4,5,6,7-tetrahydro-1H-pyrazolo[4,3-c]pyridin-3-yl]phenyl}ethyl)phenyl]-N-(phenylmethyl)methanamine] to `CS(=O)(=O)N1CCc2c(c(-c3ccc(Cl)c(C#Cc4ccc(CNCc5ccsc5)cc4)c3)nn2CCCN2CCOCC2)C1` [Example 422, 1-[4-({2-Chloro-5-[5-(methylsulfonyl)-1-(3-morpholin-4-ylpropyl)-4,5,6,7-tetrahydro-1H-pyrazolo[4,3-c]pyridin-3-yl]phenyl}ethynyl)phenyl]-N-(3-thienylmethyl)methanamine], the IC50 falls from 640 nM to 170 nM (3.8-fold). The second is the more potent here.

Compared with `NC(=O)N1CCc2c(c(-c3ccc(Cl)c(C#Cc4ccc(CNCc5ccc(Cl)cc5)cc4)c3)nn2CCCN2CCN(C3CC3)CC2)C1` [Example 463, 3-(4-Chloro-3-{[4-({[(4-chlorophenyl)methyl]amino}methyl)phenyl]ethynyl}phenyl)-1-[3-(4-cyclopropylpiperazin-1-yl)propyl]-1,4,6,7-tetrahydro-5H-pyrazolo[4,3-c]pyridine-5-carboxamide], `CC(C)(C)C1CCN(CCCn2nc(-c3ccc(Cl)c(C#Cc4ccc(CNCc5ccc(Cl)cc5)cc4)c3)c3c2CCN(S(C)(=O)=O)C3)CC1` [Example 372, 1-[4-({2-Chloro-5-[1-{3-[4-(1,1-dimethylethyl)piperidin-1-yl]propyl}-5-(methylsulfonyl)-4,5,6,7-tetrahydro-1H-pyrazolo[4,3-c]pyridin-3-yl]phenyl}ethynyl)phenyl]-N-[(4-chlorophenyl)methyl]methanamine] is 1.8-fold lower in IC50: 110 nM for the first, 60 nM for the second.

Compared with `CS(=O)(=O)N1CCc2c(c(-c3ccc(Cl)c(C#Cc4ccc(Cl)c(CN5CCOCC5)c4)c3)nn2CCCN2CCCCC2)C1` [Example 604, 3-(4-Chloro-3-{[4-chloro-3-(morpholin-4-ylmethyl)phenyl]ethynyl}phenyl)-5-(methylsulfonyl)-1-(3-piperidin-1-ylpropyl)-4,5,6,7-tetrahydro-1H-pyrazolo[4,3-c]pyridine], `CS(=O)(=O)N1CCc2c(c(-c3ccc(Cl)c(C#Cc4ccc5c(c4)CN[C@@H](C(=O)N4CCCC4)C5)c3)nn2CCCN2CCOCC2)C1` [Example 196, (3R)-7-({2-Chloro-5-[5-(methylsulfonyl)-1-(3-morpholin-4-ylpropyl)-4,5,6,7-tetrahydro-1H-pyrazolo[4,3-c]pyridin-3-yl]phenyl}ethynyl)-3-(pyrrolidin-1-ylcarbonyl)-1,2,3,4-tetrahydroisoquinoline] is 8.1-fold higher in IC50: 80 nM for the first, 650 nM for the second. The first is the more potent here.

Compared with `CC(C)(C)OC(=O)N1CCC(C2CCN(C[C@H](O)Cn3nc(-c4ccc(Cl)c(C#CCc5ccccc5)c4)c4c3CCN(S(C)(=O)=O)C4)CC2)CC1` [Example 232, 1,1-Dimethylethyl 1′-[(2S)-3-{3-[4-chloro-3-(3-phenylprop-1-yn-1-yl)phenyl]-5-(methylsulfonyl)-4,5,6,7-tetrahydro-1H-pyrazolo[4,3-c]pyridin-1-yl}-2-hydroxypropyl]-4,4′-bipiperidine-1-carboxylate], `CC(C)(C)OC(=O)N1Cc2ccc(C#Cc3cc(-c4nn(CCCN5CCOCC5)c5c4CN(S(C)(=O)=O)CC5)ccc3Cl)cc2C1` [Example 392, 1,1-Dimethylethyl 5-({2-chloro-5-[5-(methylsulfonyl)-1-(3-morpholin-4-ylpropyl)-4,5,6,7-tetrahydro-1H-pyrazolo[4,3-c]pyridin-3-yl]phenyl}ethynyl)-1,3-dihydro-2H-isoindole-2-carboxylate] is 8.5-fold lower in IC50: 1530 nM for the first, 180 nM for the second.

Compared with `C[C@H]1COCCN1CCCn1nc(-c2ccc(Cl)c(C#Cc3ccc(Cl)c(COCCCO)c3)c2)c2c1CCN(C(=O)C(N)=O)C2` [Example 274, (S)-2-{3-{4-Chloro-3-[4-chloro-3-(3-hydroxy-propoxymethyl)-phenylethynyl]-phenyl}-1-[3-(3-methyl-morpholin-4-yl)-propyl]-1,4,6,7-tetrahydro-pyrazolo[4,3-c]pyridin-5-yl}-2-oxo-acetamide], `C[C@H]1COCCN1C[C@H](O)Cn1nc(-c2ccc(Cl)c(C#Cc3ccc(CNCc4ccc(Cl)cc4)cc3)c2)c2c1CCN(C(=O)C(N)=O)C2` [Example 255, 2-{3-(4-Chloro-3-{4-[(4-chloro-benzylamino)-methyl]-phenylethynyl}-phenyl)-1-[(2S)-2-hydroxy-3-((3S)-3-methyl-morpholin-4-yl)-propyl]-1,4,6,7-tetrahydro-pyrazolo[4,3-c]pyridin-5-yl}-2-oxo-acetamide] is 1.8-fold higher in IC50: 40 nM for the first, 70 nM for the second.

In the case of `CS(=O)(=O)N1CCc2c(c(-c3ccc(Cl)c(C#Cc4cccc(CNCc5ccc(Cl)cc5)c4)c3)nn2CCCN2C[C@@H]3C[C@H]2CO3)C1` [Example 440, 1-[3-({2-Chloro-5-[5-(methylsulfonyl)-1-{3-[(1S,4S)-2-oxa-5-azabicyclo[2.2.1]hept-5-yl]propyl}-4,5,6,7-tetrahydro-1H-pyrazolo[4,3-c]pyridin-3-yl]phenyl}ethynyl)phenyl]-N-[(4-chlorophenyl)methyl]methanamine], the IC50 is reported as 390 nM.

Same assay, conditions: read-out: CatS IC50; Table 4; average of results obtained

`CC(C)(C)OC(=O)N1Cc2cc(C#Cc3cc(-c4nn(CCCN5CCOCC5)c5c4CN(S(C)(=O)=O)CC5)ccc3Cl)ccc2C[C@H]1C(=O)O` [Example 464, (3S)-7-({2-Chloro-5-[5-(methylsulfonyl)-1-(3-morpholin-4-ylpropyl)-4,5,6,7-tetrahydro-1H-pyrazolo[4,3-c]pyridin-3-yl]phenyl}ethynyl)-2-{[(1,1-dimethylethyl)oxy]carbonyl}-1,2,3,4-tetrahydroisoquinoline-3-carboxylic acid] showed an IC50 of 630 nM.
